According to patent publication US11993586B2, “Crystalline forms of potassium channel modulators” (Novartis AG, priority 2018, dated 2024):
Each block holds one compound with its values, some of them ahead of it.

Experiment: Solid form stability (conversion on heating or storage, by 1H solution NMR and XRPD)
Assay type: physicochemical
Description: Form C was obtained by slow evaporation from an IPA solution at RT. […] (onset temperatures) and 93.3° C. (peak temperature) (FIG. 5).
Form D was obtained via slow evaporation from EtOH solution at RT. […] (onset temperatures) and an exotherm at 88.5° C. (peak temperature) (FIG. 8).
(onset temperatures) (FIG. 9).
Form F was obtained by evaporation of DCM solution (100 mg scale) at RT for 1 day. […] (onset temperatures) and an exotherm at 86.9° C. (peak temperature) (FIG. 11).

Solid form conversion (heated to 120° C.): converted to anhydrate Form B
Structure (SMILES): Cc1ccn(-c2nc(NC3CCC(F)(F)CC3)cc(N3CCOCC3)n2)n1 [Form F]

Solid form conversion (heated to 130° C.): converted to anhydrate Form B
Structure (SMILES): Cc1ccn(-c2nc(NC3CCC(F)(F)CC3)cc(N3CCOCC3)n2)n1 [Form E]

Solid form conversion (heated to 110° C.): converted to anhydrate Form B
Solid form conversion (stored at RT for 8 days): converted to anhydrate Form B
Structure (SMILES): Cc1ccn(-c2nc(NC3CCC(F)(F)CC3)cc(N3CCOCC3)n2)n1 [Form C]

Solid form conversion (stored at RT for a month): converted to anhydrate Form B
Structure (SMILES): Cc1ccn(-c2nc(NC3CCC(F)(F)CC3)cc(N3CCOCC3)n2)n1 [Form D]
